# Reference: ChEMBL document CHEMBL1157916, “Cytotoxicity against KB and NCI-H187 cell lines of modified flavonoids from Kaempferia parviflora” (Bioorg Med Chem Lett, 2010)
# What was measured:
# KB [1] = test: Cytotoxicity against human KB cells after 3 days by Resazurin Microplate Assay; format: functional, cell-based; conditions: 72 h
# NCI-H187 [2] = test: Cytotoxicity against human NCI-H187 cells after 5 days by Resazurin Microplate Assay; format: functional, cell-based; conditions: NCI-H187, 120 h
# Vero [3] = test: Cytotoxicity against african green monkey Vero cells by green fluorescent protein based assay; format: cell-based; conditions: Chlorocebus sabaeus
# NCI-H187 [4] = test: Selectivity ratio of IC50 of ellipticine to IC50 of compound for human NCI-H187 cells; format: functional
# Vero [5] = test: Selectivity ratio of IC50 for african green monkey Vero cells to IC50 for human NCI-H187 cells
# KB [6] = test: Cytotoxicity against human KB cells at >100 uM after 3 days by Resazurin Microplate Assay; format: functional, cell-based
# Vero [7] = test: Cytotoxicity against african green monkey Vero cells at >100 uM by green fluorescent protein based assay; format: cell-based, Chlorocebus sabaeus
# NCI-H187 [8] = test: Cytotoxicity against human NCI-H187 cells at >100 uM after 5 days by Resazurin Microplate Assay; format: functional, cell-based
# Vero [9] = test: Selectivity ratio of IC50 for african green monkey Vero cells to IC50 for human KB cells
smiles,measurement,setting,value
COc1cc(O)c2c(c1)OC(c1ccccc1)C(OC)/C2=N\O (stereo unspecified),IC50,KB [1],23.9 µM
same,IC50,NCI-H187 [2],0.23 µM
same,IC50,Vero [3],41.2 µM
same,fold change (FC),NCI-H187 [4],12
same,fold change (FC),Vero [5],180
COc1cc(OC)c2c(c1)OC(c1ccccc1)C/C2=N\O (stereo unspecified),IC50,KB [6],Not Active
same,IC50,NCI-H187 [2],53.2 µM
COc1ccc(C2C/C(=N\O)c3c(OC)cc(OC)cc3O2)cc1 (stereo unspecified),IC50,KB [1],43.1 µM
same,IC50,NCI-H187 [2],4.04 µM
same,IC50,Vero [7],Non-toxic
COc1ccc(C2CC(O)c3c(OC)cc(OC)cc3O2)cc1 (stereo unspecified),IC50,KB [6],Not Active
same,IC50,NCI-H187 [8],Not Active
COc1cc(O)c2c(=O)c(OC)c(-c3ccccc3)oc2c1,IC50,KB [6],Not Active
same,IC50,NCI-H187 [8],Not Active
same,IC50,Vero [7],Non-toxic
COc1cc(O)c2c(c1)OC(c1ccccc1)C/C2=N/O (stereo unspecified),IC50,KB [1],0.26 µM
same,IC50,NCI-H187 [2],0.014 µM
same,IC50,Vero [3],2.67 µM
same,fold change (FC),NCI-H187 [4],200
same,fold change (FC),Vero [5],190
same,fold change (FC),Vero [9],10
O/N=C1\CC(c2ccccc2)Oc2cc(O)cc(O)c21 (stereo unspecified),IC50,KB [1],84.9 µM
same,IC50,NCI-H187 [2],2.32 µM
same,IC50,Vero [7],Non-toxic
COc1cc(OC)c2c(c1)OC(c1ccccc1)CC2O (stereo unspecified),IC50,KB [1],92.1 µM
same,IC50,NCI-H187 [8],Not Active
COc1cc(O)c(C(=O)CCc2ccccc2)c(O)c1,IC50,KB [6],Not Active
same,IC50,NCI-H187 [2],9.7 µM
COc1cc(O)c(C(=O)CCc2ccccc2)c(OC)c1,IC50,KB [6],Not Active
same,IC50,NCI-H187 [8],Not Active
COc1ccc(CCC(=O)c2c(O)cc(OC)cc2OC)cc1,IC50,KB [6],Not Active
same,IC50,NCI-H187 [8],Not Active
COc1cc(O)c2c(c1)O[C@H](c1ccccc1)[C@H](OC)C2=O (mixture of isomers),IC50,KB [1],30.4 µM
same,IC50,NCI-H187 [2],98.2 µM
COc1cc(O)c2c(c1)O[C@H](c1ccccc1)[C@H](OC)[C@@H]2O (racemic),IC50,KB [1],56.8 µM
same,IC50,NCI-H187 [2],95.6 µM
COc1ccc(C2CC(=O)c3c(OC)cc(OC)cc3O2)cc1 (racemic),IC50,KB [1],78.8 µM
same,IC50,NCI-H187 [2],25.1 µM
COc1cc(OC)c2c(=O)cc(-c3ccccc3)oc2c1 [CHRYSIN DIMETHYL ETHER],IC50,KB [6],Not Active
same,IC50,NCI-H187 [8],Not Active
same,IC50,Vero [7],Non-toxic
COc1cc(OC)c2c(c1)OC(c1ccccc1)CC2=O (stereo unspecified) [DIMETHYLPINOCEMBRIN],IC50,KB [1],39.9 µM
same,IC50,NCI-H187 [2],33.1 µM
Cc1c2ccncc2c(C)c2c1[nH]c1ccccc12 [ELLIPTECINE],IC50,KB [1],1.79 µM
same,IC50,NCI-H187 [2],2.77 µM
same,IC50,Vero [3],2.29 µM
O=C1C[C@@H](c2ccccc2)Oc2cc(O)cc(O)c21 [PINOCEMBRIN],IC50,KB [1],99.2 µM
same,IC50,NCI-H187 [2],95.5 µM
COc1cc(O)c2c(c1)O[C@H](c1ccccc1)CC2=O [PINOSTROBIN],IC50,KB [6],Not Active
same,IC50,NCI-H187 [8],Not Active
COc1cc(O)c2c(=O)cc(-c3ccccc3)oc2c1 [TECHTOCHRYSIN],IC50,KB [6],Not Active
same,IC50,NCI-H187 [8],Not Active
same,IC50,Vero [7],Non-toxic
COc1ccc(-c2cc(=O)c3c(OC)cc(OC)cc3o2)cc1 [TRIMETHYLAPIGENIN],IC50,KB [6],Not Active
same,IC50,NCI-H187 [8],Not Active
same,IC50,Vero [7],Non-toxic
